Measured values as given in BindingDB's records for doi:10.1016/j.ejmech.2018.10.048 (Touro University-California, 2019).

experiment: Inhibition of HIV1 gp41-induced cell-cell fusion between viral protein expressing human HL2/3 cells and TZM-bl target cells preincubated overnight with TZM-bl cells followed by co-incubation with HL2/3 cells for 6 hrs by luciferase reporter gene assay

Row | Structure (SMILES) | IC50
1 | CC(C)(C)OC(=O)N1CCC(Cn2ccc3ccc(-c4ccc5ccn(Cc6cccc(C(=O)O)c6)c5c4)cc32)CC1 | 1.2 µM
2 | COC(=O)c1ccc(Cn2ccc3ccc(-c4ccc5ccn(Cc6cccc(C(=O)O)c6)c5c4)cc32)c(OC)c1 | 2 µM
3 | COc1cc(Cn2ccc3ccc(-c4ccc5ccn(Cc6cccc(C(=O)O)c6)c5c4)cc32)cc(C(=O)O)c1 | 8 µM
4 | Cn1ccc2cc(F)c(-c3ccc4ccn(Cc5cc(F)cc(C(=O)O)c5)c4c3)cc21 | 2 µM
5 | COc1cccc(Cn2ccc3cc(F)c(-c4ccc5ccn(Cc6cccc(C(=O)O)c6)c5c4)cc32)c1 | 3.5 µM
6 | Cn1ccc2ccc(-c3ccc4ccn(Cc5cc(F)cc(C(=O)O)c5)c4c3)cc21 | 3.6 µM
7 | COC(=O)c1cccc(Cn2ncc3ccc(-c4ccc5ccn(Cc6cccc(C(=O)O)c6)c5c4)cc32)c1 | 0.3 µM
8 | CN(C(=O)OC(C)(C)C)c1cccc(-c2ccc3ccn(Cc4cccc(C(=O)O)c4)c3c2)c1 | 5.9 µM
9 | Cn1ccc2ccc(-c3ccc4cnn(Cc5cc(F)cc(C(=O)O)c5)c4c3)cc21 | 4.6 µM
10 | Cn1ccc2ccc(-c3ccc4c(c3)N(Cc3cccc(C(=O)O)c3)CC4)cc21 | > 10 µM
11 | COC(=O)c1cc(Cn2ccc3ccc(-c4ccc5ccn(Cc6cccc(C(=O)O)c6)c5c4)cc32)cc(C(=O)OC)c1 | 0.2 µM
12 | CC(=O)Nc1cccc(Cn2ccc3ccc(-c4ccc5ccn(Cc6cccc(C(=O)O)c6)c5c4)cc32)c1 | 1 µM
13 | Cn1ncc2ccc(-c3ccc4cnn(Cc5ccc(F)c(C(=O)O)c5)c4c3)cc21 | > 25 µM
14 | CC(C)(C)OC(=O)n1ccc2ccc(-c3ccc4ccn(Cc5cccc(C(=O)O)c5)c4c3)cc21 | 0.8 µM
15 | Cc1ccc(S(=O)(=O)n2ccc3ccc(-c4ccc5ccn(Cc6cccc(C(=O)O)c6)c5c4)cc32)cc1 | 1.3 µM
16 | COc1cccc(CN2CCc3ccc(-c4ccc5ccn(Cc6cccc(C(=O)O)c6)c5c4)cc32)c1 | 1 µM
17 | Cn1cc2ccc(-c3ccc4ccn(Cc5cc(F)cc(C(=O)O)c5)c4c3)cc2n1 | 28 µM
18 | Nc1ccc(Cn2ccc3ccc(-c4ccc5ccn(Cc6cccc(C(=O)O)c6)c5c4)cc32)cc1 | 3 µM
19 | COC(=O)c1cc(F)cc(Cn2ccc3ccc(-c4ccc5ccn(Cc6cccc(C(=O)O)c6)c5c4)cc32)c1 | 0.8 µM
20 | Cn1ncc2ccc(-c3ccc4ccn(Cc5cc(F)cc(C(=O)O)c5)c4c3)cc21 | 7 µM
21 | O=C(O)c1cccc(Cn2ccc3ccc(-c4ccc5ccn(Cc6cccc([N+](=O)[O-])c6)c5c4)cc32)c1 | 2 µM
22 | Cc1cn(C(=O)OC(C)(C)C)c2cc(-c3ccc4ccn(Cc5cccc(C(=O)O)c5)c4c3)ccc12 | 2.6 µM
23 | COC(=O)c1cccc(Cn2ccc3ccc(-c4ccc5cnn(Cc6cccc(C(=O)O)c6)c5c4)cc32)c1 | 2.8 µM
24 | COc1cccc(Cn2ccc3ccc(-c4ccc5c(C)cn(Cc6cccc(C(=O)O)c6)c5c4)cc32)c1 | 4 µM
25 | COc1cccc(CNc2cccc(-c3ccc4ccn(Cc5cccc(C(=O)O)c5)c4c3)c2)c1 | > 10 µM
26 | CC(C)(C)OC(=O)Nc1cccc(Cn2ccc3ccc(-c4ccc5ccn(Cc6cccc(C(=O)O)c6)c5c4)cc32)c1 | 2 µM
